The values that follow come from patent US20260209325A1, “SELECTIVE AND POTENT INHIBITORY ANTIBODIES OF MYOSTATIN ACTIVATION” (SCHOLAR ROCK, INC., priority 2022, published 2026).

Where “and” joins values, the source holds several entries; their conditions need not be identical. Equal values may be shown once.

Series [1] can be described thus: high fat diet mice treated with metformin and antibody (Example 4). In kind it is in vivo, mouse. Particulars: monotherapy, 45% high fat diet; FIG. 12A. How it is done:
Male C57/BL6 mice were fed a 60% high fat diet beginning at six weeks of age. At nineteen weeks of age (day 0), the mice were switched to a 45% high fat diet for 63 days. […] These mice were further divided into groups that received either 50 mg/kg of metformin or no metformin (Table 22a).
Body weight and food intake were monitored three times per week throughout the study. On days 7, 35, 49, and 63, body composition was determined by qNMR, and glucose, ketones, and insulin were measured. At the end of the study on day 63, body composition was determined by qNMR; glucose, ketones, and insulin were measured, gastrocnemius muscle, whole liver, epididymal, and subcutaneous adipose tissue was collected and weighed.
Male C57/BL6 mice (n=8/group) were fed a 60% HFD until week 18, at which time they are switched to a 45% HFD for 7 days. At day 7, animals in group 3-6 were treated with 50 mg/kg/day metformin, given orally throughout the remainder of the study.
Body weight was measured three times per week; lean mass and fat mass were measured by qNMR on days 7, 35, 49, 63, and 77; serum glucose was also measured on days 7, 35, 49, 63, and 77; serum insulin was measured on days 49, 63, and 77. A glucose tolerance test (GTT) and an insulin tolerance test (ITT) was administered between day 56 and day 63.

For series [2] the following is noted: type 2 diabetics, meta-analysis; cited from earlier work.
The next series has as its target latent myostatin (Homo sapiens, UniProt O14793). The settings on record: in vivo; cited from earlier work.
For series [3] the following is noted: patients with SMA, Phase 2 (TOPAZ; NCT03921528); cited from earlier work.
Series [4] relates to follicle stimulating hormone (FSH). The settings on record: women; cited from earlier work.
For series [5] the following is noted: obese patients with type 2 diabetes; cited from earlier work.
A further series has as its system leptin. Nature of the series: circulating leptin, U-PLEX Metabolic Hormones Combo 1 (Example 6). In kind it is in vivo, mouse. The settings on record: FIG. 14K. How it is done: Circulating leptin was measured using the U-PLEX Metabolic Hormones Combo 1 (mouse) according to manufacturer's instructions (Meso Scale Diagnostics, #K15306K-2). As expected, circulating leptin was higher in animals fed the high fat diet than animals fed a standard chow.

For series [6] the following is noted: Wilding et al. 2022; cited from earlier work.
Series [7] can be described thus: semaglutide plus Ab109 in DIO mice incl. semaglutide withdrawal (Example 6). It is filed as in vivo, mouse. How it is done:
Male C57/BL6 male mice (n=8/group) were either fed regular mouse chow (Group 1) or placed on a 60% high fat diet at six weeks of age and maintained on the 60% high fat diet until 21 weeks of age (Groups 2-8), at which time the study began (day 0). On day 0, animals in groups 2-8 were switched to a 45% high fat diet and maintained on the 45% high fat diet until the animals were terminated. […] Body weight was measured three times per week and qNMR measurements of lean mass and fat mass were obtained on the days set forth.
Animals in groups 3 and 4 were dosed with semaglutide weekly for 14 days, then terminated. Animals in groups 5 and 6 (weight regain groups), were treated with semaglutide for 35 days, then the semaglutide treatment was ended while the myostatin activation inhibiting antibody treatment continued until the animals were terminated on day 63. The animals in Groups 7 and 8 were treated with semaglutide for 63 days, i.e., they remained on semaglutide until the study terminated on day 63.
At termination, left and right gastrocnemius muscles were removed and frozen; the liver was weighed, one lobe was fixed, and the remainder was frozen; epididymal adipose tissue was removed and weighed; subcutaneous adipose tissue was removed and weighed; and a terminal serum bleed was obtained.

Series [8] is described as follows: Ab109 with 0.01 or 0.04 mg/kg semaglutide in DIO mice (Example 9). In kind it is in vivo, mouse. The settings on record: for loss in perigonadal fat pad weight: FIG. 22A; for loss in inguinal fat pads: FIG. 22B; for loss in quadriceps weight: FIG. 21A. How it is done:
Male C57/BL6 male mice (n=8/group) were placed on a 60% high fat diet at […] of age and maintained on the 60% high fat diet until 21 weeks of age (Groups 1-12), at which time the study began (day −7). On day −7, animals in groups 1-12 were switched to a 45% high fat diet and maintained on the 45% high fat diet until the animals were terminated. […] Body weight was measured three times per week and qNMR measurements of lean mass and fat mass were obtained pre-dose on day 0 and on days 7, 14 and 21. Fasting glucose was measured on day 18 after a 4 hour fast.
Animals in groups 3-12 were dosed with semaglutide daily for 3 weeks, then terminated. Animals in groups 1, 3, and 4 were treated with IgG control antibody, and those in groups 2, 5-12 were treated with myostatin activation inhibiting antibody treatment, for 3 weeks.
At termination, left gastrocnemius and quadriceps muscles were removed and frozen; the liver was weighed, one lobe was frozen; epididymal (perigonadal) adipose tissue was removed and weighed; inguinal (subcutaneous) adipose tissue was removed and weighed; and a terminal serum bleed was obtained.

`CN(C)C(=N)N=C(N)N` [metformin, reference compound]: the fat mass gain entry in [1] is “Neither metformin alone nor Ab109 alone showed this effect”. Moreover, the “effect on weight loss” value in [2] is listed as “no effect on weight loss”.

For the compound “apitegromab: selective myostatin inhibitor antibody that targets pro/latent myostatin and inhibits its activation”, the “circulating latent myostatin in treated subjects” value in the series with latent myostatin is recorded as “elevated levels of circulating latent myostatin”. In addition, the efficacy and safety result in [3] was “shown efficacy and safety”.

For the compound bimagrumab: an anti-ActRIIB antibody, the “follicle stimulating hormone (FSH)” value in series [4] is “significantly reduce follicle stimulating hormone (FSH)”. In addition, the “total body fat mass and lean mass” value in series [5] was “reduce total body fat mass and increase lean mass”.

On to semaglutide [reference compound], for which, in the series with leptin, the circulating leptin entry is listed as “lowered circulating leptin”. Also, the “regain of prior weight loss one year after discontinuing treatment” value in series [6] is “regained two-thirds of their prior weight loss”. In addition, the body weight result was “lost weight” in series [7] (45% high fat diet, semaglutide 0.04 mg/kg with hIgG or Ab109, incl. regain after withdrawal, FIG. 14A) and “lost weight” in [8] (45% high fat diet, semaglutide 0.01 or 0.04 mg/kg daily, 3 weeks, FIGS. 18A-B). In series [7] (semaglutide and hIgG), the “loss of lean mass while on semaglutide” value is listed as “about 4%”. The “net loss of lean mass at the end of the study” value in series [7] (semaglutide and hIgG, after semaglutide was stopped) amounted to 2.5%. The fat mass entry in [7] (semaglutide, and regain after withdrawal with Ab109 or control IgG, FIG. 14D) is “induced fat mass loss”. In addition, the “loss in lean mass” value in series [8] (0.01 mg/kg semaglutide, FIG. 20B) is given as 4.7%. The “loss of lean mass” value in series [8] (0.04 mg/kg semaglutide and hIgG, 3 weeks, FIG. 20A) is listed as “about 9.5%”. The entries for the “loss in perigonadal fat pad weight” value in series [8] (semaglutide 0.01 mg/kg) and in [8] (semaglutide 0.04 mg/kg) were −19.1% and −45.5%, respectively. For the same compound, the results for the “loss in inguinal fat pads” value in series [8] (semaglutide 0.01 mg/kg) and in series [8] (semaglutide 0.04 mg/kg) were −21.4% and −47.4%, respectively. Further, in series [8] (semaglutide 0.04 mg/kg alone or with Ab109, FIG. 19A, 19C), the fat mass loss entry was “induced fat mass loss”. For the same compound, the “loss in gastrocnemius muscle weight” value in [8] (semaglutide 0.01 and 0.04 mg/kg, dose of each value not stated, FIG. 21B) was −16.9% and −20.3%. In addition, the “loss in quadriceps weight” value in series [8] (semaglutide high dose (0.04 mg/kg)) is recorded as −7.6%; in series [8] (semaglutide low dose (0.01 mg/kg)), −4.8%.
